This is an account of results in patent publication US10836728B2, “Substituted 3-dialkylaminomethyl-piperidin-4-yl-benzamides and methods of making and using same” (MEBIAS DISCOVERY, INC., priority 2017, dated 2020).

The structures appear in SMILES notation. Like-named read-outs stand apart in the source and are kept apart here. Bounds are passed on as bounds.

In data set [1] the target is T1, human OPRM1 (μ, MOR) (Homo sapiens (Human), UniProt P35372). The data set can be described thus: cell-based. In kind it is cell-based. The following applies: for Emax: OPRM1, read-out: cAMP Emax; for EC50: PathHunter human OPRM1 Arrestin CHO-K1 cell line, read-out: cAMP EC50. As to the method:
G-protein signaling was measured via second messenger cAMP modulation. Detection of cAMP modulation was accomplished in the PathHunter human OPRM1 (μ, MOR) Arrestin CHO-K1 cell line using the Dynamic2 cAMP Kit from Cisbio.

Data set [2] addresses T2, MOR (Homo sapiens (Human), UniProt P35372). It counts as cell-based. The following applies: for ΔRA of compound: β-arrestin vs cAMP, from EC50 and Emax. On the procedure:
In certain embodiments, the ability of a compound to activate G-protein or β-arrestin is not an on/off switch for a given pathway, but rather a continuous function. To capture this, each compound is measured for activity in cell assays that are linked to β-arrestin recruitment and G-protein signaling. By comparing the activity between these two measures (accounting for both EC50 and maximal response reached, Emax) a relative activity (RA) value is determined.
In the case of MOR it is desirable to have high activation of the G-protein pathway while reducing activation of β-arrestin.

Data set [3] addresses T1, human OPRM1 (μ, MOR). Put plainly: cell-based. The conditions noted are these: for Emax: OPRM1, read-out: β-Arrestin Emax; for EC50: PathHunter human OPRM1 Arrestin CHO-K1 cell line, read-out: β-Arrestin EC50. In kind it is cell-based. As to the method: The technology is based on Enzyme Fragment Complementation (EFC) with β-galactosidase (β-Gal) as the reporter. […] EA is fused to β-arrestin-2, and ED is fused to the C-terminus of the GPCR of interest. When a ligand binds and the GPCR is activated, β-arrestin-2 is recruited to the receptor resulting in an ED/EA complementation, restoring β-Gal activity, which is measured using chemiluminescence. For this assay, the PathHunter human OPRM1 (μ, MOR) Arrestin CHO-K1 cell line was used.

Data set [4] deals with sedation. The data set can be described thus: Accelerating RotaRod (sedation). The conditions noted are these: rat, SC.
In data set [5] the test system is tail flick response. Put plainly: Rat tail flick nociceptive pain model. It counts as in vivo. The following applies: SC. As to the method: In rodents, the tail flick response to radiant heat is commonly used as a model to detect potentially useful analgesic agents.
Procedurally, the time (seconds) required to elicit a tail flick response induced by focused radiant heat is measured as the pain threshold in groups of 8 Sprague-Dawley (SD) male rats weighing 110±20 g. Prolongation by 50 percent or more (≥50) of the time required to elicit a tail flick response 15 and 30 minutes following administration of test substance indicates possible analgesic activity. Also, one-way ANOVA followed by Dunnett's test is applied for comparison between vehicle control and treatment groups.

Data set [6] is described as follows: Respiratory depression test (O2 partial pressure). The conditions noted are these: rat, SC, at 30 minutes, vehicle 96 mm Hg.
Data set [7] relates to place preference. Put plainly: Conditioned place preference. The following applies: rat, SC.
Description: Although a number of different designs and apparatuses are used in this model, the basic characteristics of this task involve the association of a particular environment with drug treatment, followed by the association of a different environment with the absence of the drug (i.e., the drug's vehicle). A common variation of this design consists of a three-compartment chamber with the outer compartments being designed to have different characteristics (e.g., white vs. black walls, pine vs. corn bedding, horizontal grid vs. cross-grid flooring). […] On the following day, the rat is injected with the drug's vehicle and then placed in the opposite compartment. […] Afterward, a test session is conducted, which consists of placing the animal in the center compartment and then, after opening the gates to both of the outer compartments, recording the time the animal spends in each of the outer compartments during the session.
In certain embodiments, there are three days of adaptation where any preferences are assessed. Then, compartment assignments for drug or saline are based on any existing preferences. […] There are 8 days of training followed by the test day when both compartments are accessible and the computer counts how much time is spent in the respective compartment.
Data set [8] relates to intestinal transit. Put plainly: Gastrointestinal motility (charcoal transit). The conditions noted are these: rat, SC. As to the method:
At 30 minutes post subcutaneous dosing, the animals were given a suspension of 5% charcoal in 10% gum arabic solution (2 ml/animal p.o.) and sacrificed 15 minutes later. The intestine was removed, and the length of the gut in cm (GL) as well as extent of charcoal movement from the pylorus to the beginning of the charcoal column in cm (CP) was measured.
Intestinal transit (IT) was calculated as IT=(CP/GL)×100%. A 30% or more (30) increase or decrease intestinal transit (IT), relative to the vehicle control group, was considered significant. The values in animals treated with test compounds compared with vehicle control group were also analyzed by using one-way ANOVA followed by Dunnett's test. Differences are considered statistically significant at P<0.05.

In data set [9] the target is T2, MOR. The conditions noted are these: cell-based assays; cited from earlier work.
For data set [10] the following is noted: healthy volunteers; cited from earlier work.
The target in data set [11] is T2, MOR. The conditions noted are these: vs morphine; cited from earlier work.
For data set [12] the following is noted: patients following bunionectomy; cited from earlier work.

For `CN(C)CC1CN(CCc2ccc(O)cc2)CCC1(O)c1cccc(C(N)=O)c1` (centres unmarked) [(18), 3-(3-((Dimethylamino)methyl)-4-hydroxy-1-(4-hydroxyphenethyl)piperidin-4-yl)benzamide], in data set [1], the maximal response (Emax) (in general, the size of the effect at its maximum, as opposed to the concentration needed) is 103% and the EC50 (as a rule, the concentration that produces a half-maximal response) is 160 nM. Besides, in data set [2], the “Bias Factor (ΔRA of compound relative to ΔRA of DAMGO) × 10” value is −3.73 and the ΔRA of compound is listed as −1.91. In data set [3], the Emax is 24% and the concentration for a half-maximal effect (EC50) was 3100 nM.
In the case of `CN(C)C[C@@H]1CN(Cc2ccc(F)cc2Cl)CC[C@@]1(O)c1cccc(C(N)=O)c1` (single isomer, unassigned; ent-b) [Ent-B-syn-(6), Ent-B-syn 3-(1-(2-chloro-4-fluorobenzyl)-3-((dimethylamino)methyl)-4-hydroxypiperidin-4-yl)benzamide], in data set [1], the “cAMP Emax” value stood at 111% and the half-maximal effective concentration (EC50) is 463 nM. Besides, in [2], the “Bias Factor (ΔRA of compound relative to ΔRA of DAMGO) × 10” value is given as −1.06 and the ΔRA of compound is listed as −1.65. Moreover, in data set [3], the “β-Arrestin Emax” value stood at 20% and the EC50 is 3670 nM.
On to `CN(C)C[C@H]1CN(CCc2ccsc2)CC[C@]1(O)c1cccc(C(N)=O)c1` [(41a), 3-((3S,4R)-3-((Dimethylamino)methyl)-4-hydroxy-1-(2-(thiophen-3-yl)ethyl)piperidin-4-yl)benzamide], for which the “Sedation, accelerating RotaRod” value in data set [4] (5 mg/kg) and in [4] (20 mg/kg) was “no sedation” throughout. Moreover, the “Dose to reach the ED80 of morphine in rat tail flick” value in data set [5] stood at 5 mg/kg. Also, the O2 partial pressure entry in [6] (5 mg/kg) and in [6] (20 mg/kg) was “the same O2 partial pressure as vehicle” throughout. In data set [7] (20 mg/kg), the “Preference for drug chamber over saline chamber” value was “no preference for the (41a) chamber over the saline chamber”. Besides, the “Reduction in transit relative to vehicle” value in data set [8] (5 mg/kg) and in data set [8] (20 mg/kg) was “no significant reduction in transit” throughout.
Regarding `CN(C)CC1CN(Cc2ccsc2)CCC1(O)c1cccc(C(N)=O)c1` (centres unmarked) [(11), 3-(3-Dimethylaminomethyl-4-hydroxy-1-thiophen-3-ylmethyl-piperidin-4-yl)-benzamide], in data set [1], the Emax is 112% and the EC50 is 550 nM. In data set [2], the “Bias Factor (ΔRA of compound relative to ΔRA of DAMGO) × 10” value is reported as −2.31 and the ΔRA of compound is −1.77. Moreover, in data set [3], the Emax was determined as 37% and the 50% effective concentration (EC50) was 10700 nM.
In the case of `CN(C)C[C@H]1CN(CCCc2ccc(F)cc2Cl)CC[C@]1(O)c1cccc(C(N)=O)c1` [(23a), 3-((3S,4R)-1-(3-(2-Chloro-4-fluorophenyl)propyl)-3-((dimethylamino)methyl)-4-hydroxypiperidin-4-yl)benzamide], the “Sedation, accelerating RotaRod” value in [4] (4.5 mg/kg) and in data set [4] (18 mg/kg) was “no sedation” throughout. Also, in data set [5], the “Dose to reach the ED80 of morphine in rat tail flick” value was 4.5 mg/kg. Further, the O2 partial pressure entry in data set [6] (4.5 mg/kg) and in [6] (18 mg/kg) was “the same O2 partial pressure as vehicle” in each case. For the same molecule, the “Preference for drug chamber over saline chamber” value in data set [7] (18 mg/kg) is listed as “no preference for the (23a) chamber over the saline chamber”. The results for the “Reduction in transit relative to vehicle” value in [8] (4.5 mg/kg) and in data set [8] (18 mg/kg) were “no significant reduction in transit” and “small reduction in transit”, respectively.
For `CN(C)CC1CN(CCCc2ccccc2)CCC1(O)c1cccc(C(N)=O)c1` (centres unmarked) [(20), 3-[3-Dimethylaminomethyl-4-hydroxy-1-(3-phenyl-propyl)-piperidin-4-yl]-benzamide], in data set [1], the Emax stood at 103% and the concentration for a half-maximal effect (EC50) amounted to 10 nM. Further, in data set [2], the “Bias Factor (ΔRA of compound relative to ΔRA of DAMGO) × 10” value is reported as −7.37 and the ΔRA of compound is recorded as −2.28. In addition, in [3], the Emax amounted to 14% and the EC50 amounted to 270 nM.
As for `COc1ccsc1CNCC[C@@]1(c2ccccn2)CCOC2(CCCC2)C1` [oliceridine, N-[(3-methoxythiophen-2-yl)methyl]-2-[(9R)-9-pyridin-2-yl-6-oxaspiro[4.5]decan-9-yl]ethanamine], in [9], the “β-arrestin recruitment Emax” value is recorded as 14%. Moreover, the “On-target adverse effects (such as nausea, and decrease in respiratory drive)” value in data set [10] was “decreased on-target adverse effects”. In addition, the “G-protein signaling Emax” value in data set [11] was 83%. In addition, in [12], the Level of analgesia result is recorded as “higher level of analgesia”.
With `CN(C)C[C@H]1CN(Cc2ccc(F)cc2Cl)CC[C@]1(O)c1cccc(C(N)=O)c1` (single isomer, unassigned; ent-a) [Ent-A-syn-(6)], in [1], the “cAMP Emax” value is on record as 132% and the half-maximal effective concentration (EC50) was found to be 163 nM. In [2], the “Bias Factor (ΔRA of compound relative to ΔRA of DAMGO) × 10” value was −0.92 and the ΔRA of compound is −1.63. Besides, in data set [3], the “β-Arrestin Emax” value amounted to 60% and the concentration giving a half-maximal response (EC50) is 3170 nM.
For the molecule `CN(C)CC1CN(CCc2ccccc2)CCC1(O)c1cccc(C(N)=O)c1` (centres unmarked) [(9), 3-(3-Dimethylaminomethyl-4-hydroxy-1-phenethyl-piperidin-4-yl)-benzamide], in [1], the Emax turned out to be 118% and the EC50 was 34 nM. Also, in data set [2], the “Bias Factor (ΔRA of compound relative to ΔRA of DAMGO) × 10” value is −6.76 and the ΔRA of compound was −2.22. Further, in data set [3], the Emax was determined as 18% and the concentration for a half-maximal effect (EC50) worked out at 830 nM.
Regarding `C[C@@H](NC(=O)[C@@H](N)Cc1ccc(O)cc1)C(=O)NCC(=O)N(C)[C@@H](Cc1ccccc1)C(=O)NCCO` [DAMGO, H-Tyr-D-Ala-Gly-NMe-Phe-Gly-OH, reference compound], the Emax in data set [3] was 98%.
For `CN(C)CC1CN(CCc2ccsc2)CCC1(O)c1cccc(C(N)=O)c1` (centres unmarked) [(15), 3-(3-((Dimethylamino)methyl)-4-hydroxy-1-(2-(thiophen-3-yl)ethyl)piperidin-4-yl)benzamide], in data set [1], the Emax came to 95% and the 50% effective concentration (EC50) was 67 nM. In [3], the Emax is < 10% and the EC50 was > 100000 nM.
Taken in the same sequence, the figures for `COc1ccc(CCN2CCC(O)(c3cccc(C(N)=O)c3)C(CN(C)C)C2)cc1` (centres unmarked) [(17), 3-(3-((Dimethylamino)methyl)-4-hydroxy-1-(4-methoxyphenethyl)piperidin-4-yl)benzamide] were 84%, 467 nM, < 10% and > 100000 nM.
On to `CN(C)CC1CN(Cc2ccc(F)cc2Cl)CCC1(O)c1cccc(C(N)=O)c1` (centres unmarked) [(6), 3-[1-(2-Chloro-4-fluoro-benzyl)-3-dimethylaminomethyl-4-hydroxy-piperidin-4-yl]-benzamide], for which, in data set [1], the Emax is 107% and the half-maximal effective concentration (EC50) stood at 102 nM. In [2], the “Bias Factor (ΔRA of compound relative to ΔRA of DAMGO) × 10” value is on record as −2.89 and the ΔRA of compound is given as −1.83. Besides, in data set [3], the Emax amounted to 40% and the concentration giving a half-maximal response (EC50) was found to be 2560 nM.
